# Inconclusive results and toxic doses are left out.
# Tested on: P388 leukemia ip, CD2F1 mice, survival T/C
# Test: NCI In Vivo Anticancer Drug Screen. Data for tumor model P388 Leukemia (intraperitoneal) in CD2F1 (CDF1) mice
# Settings: endpoint: median survival time, higher = longer survival
# Procedure, shortened: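 Mice carrying the transplanted tumor received test compound or vehicle. Survival was recorded in each group, and the value is the treated-group measurement divided by that of the vehicle-treated control group.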
# [1] = dose: 60.0 mg/kg/injection, schedule: Q01DX005 (ip), vehicle: Klucel (hydroxypropylcellulose) (HPC)
# [2] = dose: 120.0 mg/kg/injection, schedule: Q01DX005 (ip), vehicle: Klucel (hydroxypropylcellulose) (HPC)
# [3] = dose: 240.0 mg/kg/injection, schedule: Q01DX005 (ip), vehicle: Klucel (hydroxypropylcellulose) (HPC)
# [4] = dose: 100.0 mg/kg/injection, schedule: Q01DX001 (ip), vehicle: Klucel (hydroxypropylcellulose) (HPC)
# [5] = dose: 200.0 mg/kg/injection, schedule: Q01DX001 (ip), vehicle: Klucel (hydroxypropylcellulose) (HPC)
# [6] = dose: 400.0 mg/kg/injection, schedule: Q01DX001 (ip), vehicle: Klucel (hydroxypropylcellulose) (HPC)
# [7] = dose: 100.0 mg/kg/injection, schedule: Q04DX003 (ip), vehicle: saline
# [8] = dose: 200.0 mg/kg/injection, schedule: Q04DX003 (ip), vehicle: saline
# [9] = dose: 5.0 mg/kg/injection, schedule: Q01DX009 (ip), vehicle: saline with Tween-80
# [10] = dose: 10.0 mg/kg/injection, schedule: Q01DX009 (ip), vehicle: saline with Tween-80
# [11] = dose: 400.0 mg/kg/injection, schedule: Q04DX003 (ip), vehicle: saline
# [12] = dose: 50.0 mg/kg/injection, schedule: Q01DX009 (ip), vehicle: saline with Tween-80
# [13] = dose: 100.0 mg/kg/injection, schedule: Q01DX009 (ip), vehicle: saline with Tween-80
# [14] = dose: 200.0 mg/kg/injection, schedule: Q01DX009 (ip), vehicle: saline with Tween-80
# [15] = dose: 60.0 mg/kg/injection, schedule: Q01DX005 (ip), vehicle: saline with Tween-80
# [16] = dose: 120.0 mg/kg/injection, schedule: Q01DX005 (ip), vehicle: saline with Tween-80
# [17] = dose: 240.0 mg/kg/injection, schedule: Q01DX005 (ip), vehicle: saline with Tween-80
smiles,measurement,setting,value
O=c1cc(CCc2ccccc2)c2ccccc2[nH]1,T/C,"dose: 100.0 mg/kg/injection, schedule: Q04DX002 (ip), vehicle: saline with Tween-80",94 % of control
same,T/C,"dose: 200.0 mg/kg/injection, schedule: Q04DX002 (ip), vehicle: saline with Tween-80",94 % of control
same,T/C,"dose: 400.0 mg/kg/injection, schedule: Q04DX002 (ip), vehicle: saline with Tween-80",95 % of control
Cn1c(N)nc2c([nH]c(=O)n2C2OC(CO)C(O)C2O)c1=O (centres undefined),T/C,[1],105 % of control
same,T/C,[2],111 % of control
same,T/C,[3],111 % of control
Cc1c(N=Nc2ccccc2[N+](=O)[O-])c(-c2ccccc2)nn1C(N)=S,T/C,[4],114 % of control
same,T/C,[5],114 % of control
same,T/C,[6],108 % of control
Cc1ncc(C[n+]2cccc(CCO)c2C)c(N)n1,T/C,"dose: 50.0 mg/kg/injection, schedule: Q04DX003 (ip), vehicle: saline",97 % of control
same,T/C,[7],103 % of control
same,T/C,[8],100 % of control
O=C1C(Cl)=C(N2CC2)C(=O)C(Cl)=C1N1CC1,T/C,"dose: 0.08 mg/kg/injection, schedule: Q01DX009 (ip), vehicle: saline with Tween-80",105 % of control
same,T/C,"dose: 0.16 mg/kg/injection, schedule: Q01DX009 (ip), vehicle: saline with Tween-80",112 % of control
same,T/C,"dose: 0.31 mg/kg/injection, schedule: Q01DX009 (ip), vehicle: saline with Tween-80",122 % of control
same,T/C,"dose: 0.63 mg/kg/injection, schedule: Q01DX009 (ip), vehicle: saline with Tween-80",124 % of control
same,T/C,"dose: 2.5 mg/kg/injection, schedule: Q01DX009 (ip), vehicle: saline with Tween-80",155 % of control
same,T/C,[9],155 % of control
same,T/C,[10],155 % of control
COc1ccc2oc(=O)n(N=C(C)C)c(=O)c2c1,T/C,[1],97 % of control
same,T/C,[2],95 % of control
same,T/C,[3],94 % of control
Cc1ccc(O)c(C(=NCCCCN=C(c2ccccc2)c2cc(C)ccc2O)c2ccccc2)c1.[Ni],T/C,"dose: 25.0 mg/kg/injection, schedule: Q01DX005 (ip), vehicle: Klucel (hydroxypropylcellulose) (HPC)",97 % of control
same,T/C,"dose: 50.0 mg/kg/injection, schedule: Q01DX005 (ip), vehicle: Klucel (hydroxypropylcellulose) (HPC)",97 % of control
same,T/C,"dose: 100.0 mg/kg/injection, schedule: Q01DX005 (ip), vehicle: Klucel (hydroxypropylcellulose) (HPC)",103 % of control
same,T/C,"dose: 200.0 mg/kg/injection, schedule: Q01DX005 (ip), vehicle: Klucel (hydroxypropylcellulose) (HPC)",94 % of control
CCOC(=O)N[N+]12CCN(CC1)CC2,T/C,[7],100 % of control
same,T/C,[8],102 % of control
same,T/C,[11],102 % of control
COC1=C(N=[N+]=[N-])C(=O)C(OC)=C(N=[N+]=[N-])C1=O,T/C,[9],90 % of control
same,T/C,[10],90 % of control
same,T/C,"dose: 20.0 mg/kg/injection, schedule: Q01DX009 (ip), vehicle: saline with Tween-80",100 % of control
N#CN=CN1CCN(c2ccccc2)CC1,T/C,[12],100 % of control
same,T/C,[13],97 % of control
same,T/C,[14],99 % of control
Cc1ccc(SC(F)(F)C(F)C(F)(F)F)cc1 (centres undefined),T/C,"dose: 50.0 mg/kg/injection, schedule: Q01DX005 (ip), vehicle: saline",98 % of control
same,T/C,"dose: 100.0 mg/kg/injection, schedule: Q01DX005 (ip), vehicle: saline",101 % of control
same,T/C,"dose: 200.0 mg/kg/injection, schedule: Q01DX005 (ip), vehicle: saline",100 % of control
Oc1ccccc1C=Nc1cccnc1,T/C,"dose: 12.5 mg/kg/injection, schedule: Q01DX009 (ip), vehicle: saline with Tween-80",96 % of control
same,T/C,"dose: 25.0 mg/kg/injection, schedule: Q01DX009 (ip), vehicle: saline with Tween-80",101 % of control
same,T/C,[12],87 % of control
COc1cc(C(=O)CC(=O)CCC(=O)Nc2ccc(Cl)cc2)ccc1O,T/C,[15],104 % of control
same,T/C,[16],103 % of control
same,T/C,[17],98 % of control
CC1(C)OC(=O)C(=Cc2ccc(C#N)cc2)C(=O)O1,T/C,[15],108 % of control
same,T/C,[16],102 % of control
same,T/C,[17],111 % of control
COc1c2ccoc2nc2c(O)c3c(c(CC=C(C)C)c12)OCO3,T/C,"dose: 1.5 mg/kg/injection, schedule: Q01DX005 (ip), vehicle: Klucel (hydroxypropylcellulose) (HPC)",102 % of control
same,T/C,"dose: 3.0 mg/kg/injection, schedule: Q01DX005 (ip), vehicle: Klucel (hydroxypropylcellulose) (HPC)",104 % of control
same,T/C,"dose: 6.0 mg/kg/injection, schedule: Q01DX005 (ip), vehicle: Klucel (hydroxypropylcellulose) (HPC)",103 % of control
same,T/C,"dose: 11.88 mg/kg/injection, schedule: Q01DX005 (ip), vehicle: Klucel (hydroxypropylcellulose) (HPC)",86 % of control
same,T/C,"dose: 12.0 mg/kg/injection, schedule: Q01DX005 (ip), vehicle: Klucel (hydroxypropylcellulose) (HPC)",96 % of control
same,T/C,"dose: 47.5 mg/kg/injection, schedule: Q01DX005 (ip), vehicle: Klucel (hydroxypropylcellulose) (HPC)",86 % of control
COc1ccc(/C=C/C(=O)c2cc(O)cc(OC)c2)cc1,T/C,"dose: 6.25 mg/kg/injection, schedule: Q01DX009 (ip), vehicle: Klucel (hydroxypropylcellulose) (HPC)",101 % of control
same,T/C,"dose: 12.5 mg/kg/injection, schedule: Q01DX009 (ip), vehicle: Klucel (hydroxypropylcellulose) (HPC)",96 % of control
same,T/C,"dose: 25.0 mg/kg/injection, schedule: Q01DX009 (ip), vehicle: Klucel (hydroxypropylcellulose) (HPC)",101 % of control
same,T/C,"dose: 50.0 mg/kg/injection, schedule: Q01DX009 (ip), vehicle: Klucel (hydroxypropylcellulose) (HPC)",110 % of control
CCCC(O)C[N+](=O)[O-] (centres undefined),T/C,[7],109 % of control
same,T/C,[8],109 % of control
same,T/C,[11],118 % of control
COC12CC(C)(C)OC1C(C)C1C(CC3(C)C4CC=C5C(C=C(O)C(=O)C5(C)C)C4(C)C(=O)CC13C)O2 (centres undefined),T/C,"dose: 100.0 mg/kg/injection, schedule: Q04DX002 (ip), vehicle: saline",100 % of control
same,T/C,"dose: 200.0 mg/kg/injection, schedule: Q04DX002 (ip), vehicle: saline",100 % of control
same,T/C,"dose: 400.0 mg/kg/injection, schedule: Q04DX002 (ip), vehicle: saline",100 % of control
C=CC(C)n1ccnc1 (centres undefined),T/C,"dose: 50.0 mg/kg/injection, schedule: Q01DX009 (ip), vehicle: saline",101 % of control
same,T/C,"dose: 100.0 mg/kg/injection, schedule: Q01DX009 (ip), vehicle: saline",97 % of control
same,T/C,"dose: 200.0 mg/kg/injection, schedule: Q01DX009 (ip), vehicle: saline",102 % of control
O=c1cccc2n1C[C@H]1C[C@@H]2CN2CCCC[C@H]12,T/C,"dose: 6.25 mg/kg/injection, schedule: Q01DX005 (ip), vehicle: saline",99 % of control
same,T/C,"dose: 12.5 mg/kg/injection, schedule: Q01DX005 (ip), vehicle: saline",99 % of control
COc1ccccc1/C=C1/C(=O)ON=C1C,T/C,[15],100 % of control
same,T/C,[16],98 % of control
same,T/C,[17],108 % of control
CC(=O)CC(=NC(C)(C)C)Nc1ncc(Cl)c2ccccc12,T/C,"dose: 50.0 mg/kg/injection, schedule: Q01DX005 (ip), vehicle: saline with Tween-80",94 % of control
same,T/C,"dose: 100.0 mg/kg/injection, schedule: Q01DX005 (ip), vehicle: saline with Tween-80",92 % of control
same,T/C,"dose: 200.0 mg/kg/injection, schedule: Q01DX005 (ip), vehicle: saline with Tween-80",97 % of control
Cc1cnc(I)[nH]1,T/C,"dose: 100.0 mg/kg/injection, schedule: Q01DX001 (ip), vehicle: saline",102 % of control
same,T/C,[7],107 % of control
same,T/C,"dose: 200.0 mg/kg/injection, schedule: Q01DX001 (ip), vehicle: saline",105 % of control
same,T/C,[8],112 % of control
same,T/C,[11],92 % of control
COC(=O)Nc1nnc(Cn2c([N+](=O)[O-])cnc2C)s1,T/C,[4],96 % of control
same,T/C,[5],101 % of control
same,T/C,[6],93 % of control
Cc1c2c(nn1C)CCOC2=O,T/C,[4],100 % of control
same,T/C,[5],101 % of control
same,T/C,[6],95 % of control
[N-]=[N+]=Nc1ccnc2ccc(C3CCCCC3)cc12,T/C,[15],100 % of control
same,T/C,[16],92 % of control
same,T/C,[17],100 % of control
CCOC(=O)C1=C(C(C)=O)C(c2cccc([N+](=O)[O-])c2)C(C(C)=O)=C(C(=O)OCC)N1,T/C,[1],98 % of control
same,T/C,[2],88 % of control
same,T/C,[3],95 % of control
O=C(O)c1nn(Cc2ccc(Cl)cc2)c2ccccc12,T/C,[12],109 % of control
same,T/C,[13],103 % of control
same,T/C,[14],110 % of control
